Experimental data from US20110306801A1, “EXTRACTION AND SEPARATION PROCESSES FOR RECOVERY OF ORGANIC SOLUTES FROM FEED SOURCES AND APPARATUSES FOR PERFORMING SAME” (Trans Ionics Corporation, priority 2009, published 2011).
Where two headings read alike, the source gives them in different places. Values belong to the molecule of their own block, whether it stands above or below them.

Key:
[1] = Extraction of ethanol from water with cetyl alcohol, equilibrium data and distribution coefficient; format: physicochemical; details: aqueous ethanol feed, 75° C.
Procedure: (§1) DC=(Wo/Ws)ext/(Wo/Ww)raff (1)
(§2) The slope of this line is the distribution coefficient.
Cetyl Alcohol as an Extraction Solvent For Ethanol. Cetyl alcohol was used as a solvent for ethanol extraction. Because cetyl alcohol melts between 47° C. and 50° C. and therefore is a solid at both room temperature (25° C.) and typical fermentation temperatures (40° C.), it has been overlooked as an extraction solvent. Cetyl alcohol was tested at 75° C. at a solvent:feed ratio of 5:1.

[2] = ethanol, ABE feed, cetyl alcohol/mixed xylenes 50/50 wt %
[3] = Batch separation of ethanol from xylenes using 5 Å zeolite molecular sieves; format: physicochemical; details: 10.0 grams feed (8.00 wt % ethanol, 0.07 wt % water, balance mixed xylenes) with 5.0 gm zeolite, 40° C.
[4] = cetyl alcohol/oleic acid 50/50 wt %, 5:1, 75° C.
Procedure: One measure of the effectiveness of a solvent for extracting solutes is termed the distribution coefficient, which is calculated as follows in Formula (1):
as §1, §2
Mixtures of Cetyl Alcohol and Other Solvents For Extraction of Ethanol. Mixtures of cetyl alcohol with other solvents were used in order to produce a resulting extraction solvent having a lower melting point than pure cetyl alcohol. […] This solvent mixture was tested for ethanol extraction at a solvent:feed ratio of 5:1 at 75° C.

[5] = approximately 6.0 grams 100-120 mesh 5 Å sieves, 10.1 mm ID column, 20.0 ml feed with 7.47 wt % ethanol in xylenes
Procedure: Commercially available Linde 5 Å molecular sieves containing binder were ground and sieved to 100-120 mesh using standard screens. After activation at 400° C., the sieves were cooled to 150° C. and poured directly into mixed xylenes.
The stopcock was opened and samples of liquid were taken every 10 minutes for analysis by gas chromatography. Data were normalized to produce a dimensionless concentration by dividing each of the outlet ethanol concentrations by that of the feed stream.

SMILES: CCCCCCCCCCCCCCCCO [Cetyl alcohol]
emulsion formation as extraction solvent [1]: no indication of the formation of emulsions

Extract (Wo/Ws) ([2]; 5:1, 40° C., feed Wo/Ww 0.002): 0.00002 Wo/Ws
Raffinate (Wo/Ww) ([2]; 5:1, 40° C., feed Wo/Ww 0.002): 0.00009 Wo/Ww
Extract (Wo/Ws) ([2]; 5:1, 40° C., feed Wo/Ww 0.03): 0.0005 Wo/Ws
Raffinate (Wo/Ww) ([2]; 5:1, 40° C., feed Wo/Ww 0.03): 0.0025 Wo/Ww
Extract (Wo/Ws) ([2]; 5:1, 40° C., feed Wo/Ww 0.06): 0.0010 Wo/Ws
Raffinate (Wo/Ww) ([2]; 5:1, 40° C., feed Wo/Ww 0.06): 0.0052 Wo/Ww
Extract (Wo/Ws) ([2]; 5:1, 40° C., feed Wo/Ww 0.12): 0.0021 Wo/Ws
Raffinate (Wo/Ww) ([2]; 5:1, 40° C., feed Wo/Ww 0.12): 0.0102 Wo/Ww
Raffinate (Wo/Ww) ([2]; 5:1, 40° C., feed Wo/Ww 0.15): 0.0126 Wo/Ww
Extract (Wo/Ws) ([2]; 5:1, 40° C., feed Wo/Ww 0.19): 0.0032 Wo/Ws
Raffinate (Wo/Ww) ([2]; 5:1, 40° C., feed Wo/Ww 0.19): 0.0152 Wo/Ww
Extract (Wo/Ws) ([2]; 5:1, 75° C., feed Wo/Ww 0.002): 0.00003 Wo/Ws
Raffinate (Wo/Ww) ([2]; 5:1, 75° C., feed Wo/Ww 0.002): 0.00007 Wo/Ww
Extract (Wo/Ws) ([2]; 5:1, 75° C., feed Wo/Ww 0.03): 0.0009 Wo/Ws
Raffinate (Wo/Ww) ([2]; 5:1, 75° C., feed Wo/Ww 0.03): 0.0021 Wo/Ww
Extract (Wo/Ws) ([2]; 5:1, 75° C., feed Wo/Ww 0.06): 0.0012 Wo/Ws
Raffinate (Wo/Ww) ([2]; 5:1, 75° C., feed Wo/Ww 0.06): 0.0043 Wo/Ww
Extract (Wo/Ws) ([2]; 5:1, 75° C., feed Wo/Ww 0.12): 0.0025 Wo/Ws
Raffinate (Wo/Ww) ([2]; 5:1, 75° C., feed Wo/Ww 0.12): 0.0084 Wo/Ww
Extract (Wo/Ws) ([2]; 5:1, 75° C., feed Wo/Ww 0.15): 0.0031 Wo/Ws
Raffinate (Wo/Ww) ([2]; 5:1, 75° C., feed Wo/Ww 0.15): 0.0105 Wo/Ww
Raffinate (Wo/Ww) ([2]; 5:1, 75° C., feed Wo/Ww 0.19): 0.0125 Wo/Ww
ethanol content leveled out after contact with 5 Å zeolite pellets [3]: 1.07 wt %
Extract (Wo/Ws) ([4]; feed Wo/Ww 0.2000): 0.0316 Wo/Ws
Extract (Wo/Ws) ([4]; feed Wo/Ww 0.5000): 0.0848 Wo/Ws
volume of effluent exited the column before ethanol appeared in the product [5]: 20 mL
SMILES: CCO [ethanol]
